Experimental data: publication PMC4669143, “Wild Edible Fruit of Prunus nepalensis Ser. (Steud), a Potential Source of Antioxidants, Ameliorates Iron Overload-Induced Hepatotoxicity and Liver Fibrosis in Mice” (PLoS ONE, 2015)
≈ marks a conversion by molar mass, not a printed value. Each block holds one molecule with its values, some of them ahead of it.

Experiments:
[1] = Fe2+ chelating activity assay; type: biochemical; conditions: for Iron chelation activity (in words): Fig 12C
Method: (§1) The Fe^2+ chelating ability was determined as described earlier. […] The densitometric analysis of the DNA bands was performed using ImageJ 1.47v tool by the software company NIH, USA. The DNA supercoil protection capacity of the fruit extract was expressed as the [P]50 value, the amount of sample required for 50% protection. The degree of inhibition of Fe^2+-mediated lipid peroxidation was assessed by estimating the TBARS by the method of Ghate et al. 2013 [9] using freshly prepared brain homogenates of Swiss albino mouse brains. The results are expressed as a percentage of inhibition.

[2] = Hydroxyl radical scavenging assay; type: biochemical; conditions: mean ± S.D., n = 6
[3] = Superoxide anion scavenging assay; type: biochemical; conditions: mean ± S.D., n = 6
[4] = Singlet oxygen scavenging assay; type: biochemical; conditions: mean ± S.D., n = 6
[5] = test system: Fe2+-mediated lipid peroxidation; assay: Inhibition of Fe2+-mediated lipid peroxidation (TBARS) in brain homogenates; type: biochemical, Swiss albino mouse; conditions: mouse brain homogenate, mean ± S.D., n = 6
Method: as §1

[6] = Peroxynitrite scavenging assay; type: biochemical; conditions: mean ± S.D., n = 6
[7] = test system: iron overload induced hepatotoxicity in mice; assay: Serum markers in iron-dextran overloaded mice after oral therapy; type: in vivo, Swiss albino mice; conditions: desirox 20 mg/kg b.w. oral
Method: (one dose every alternative days).
Aspartate amino transferase (ASAT), alanine amino transferase (ALAT), and billirubin levels in the serum were evaluated using commercially available kits from Merck (India). Moreover, alkaline phosphatase (ALP) levels in the serum were measured by a kit procured from Sentinel Diagnostics, Italy.

[8] = Hypochlorous acid scavenging assay; type: biochemical; conditions: mean ± S.D., n = 6
[9] = DPPH radical scavenging assay; type: biochemical; conditions: mean ± S.D., n = 6
Method: Standard methods were used to evaluate the Fe^3+-reducing capacity of the extract. The DPPH (2,2-diphenyl-1-picrylhydrazyl) scavenging potential of the extract was investigated according to Ghate et al, 2013 [9]. The scavenging percentage of PNME was evaluated from the values of the control and the test samples.

Molecule: tannic acid
Iron chelation activity (in words) [1]: most potent iron chelator

Molecule: COC(=O)[C@H]1[C@H]2C[C@@H]3c4[nH]c5cc(OC)ccc5c4CCN3C[C@H]2C[C@@H](OC(=O)c2cc(OC)c(OC)c(OC)c2)[C@@H]1OC [Reserpine, reserpine]
Iron chelation activity (in words) [1]: failed to show any activity

Molecule: O.Oc1cc(O)c2c(c1)O[C@H](c1ccc(O)c(O)c1)[C@@H](O)C2 [catechin]
Iron chelation activity (in words) [1]: failed to show any activity

Molecule: O=c1c(O)c(-c2ccc(O)c(O)c2)oc2cc(O)cc(O)c12 [Quercetin]
IC50 Superoxide anion (O2•−) scavenging [3]: 42.06 ± 1.35 µg/mL (≈ 139 µM)

Molecule: Cc1c(C)c2c(c(C)c1O)CCC(C)(C(=O)O)O2 (stereo not shown) [Trolox, 6-hydroxy-2,5,7,8-tetramethylchroman-2-carboxylic acid]
IC50 Lipid peroxidation [5]: 6.76 ± 0.17 µg/mL (≈ 27 µM)

Molecule: O=C(O)c1ccc(-n2nc(-c3ccccc3O)nc2-c2ccccc2O)cc1 [desirox, Deferasirox]
ALAT % change ([7]; D, change versus blank group B): 52.80%
ALP % change ([7]; D, change versus blank group B): 84.44%
ASAT % change ([7]; D, change versus blank group B): 17.36%
Bilirubin % change ([7]; D, change versus blank group B): 10.97%
ALAT ([7]; serum, 21 days (D)): 23.55±1.09 ^X3Y3 Unit/L
ALP ([7]; serum, 21 days (D)): 61.01± 2.44 ^X3Y3 Unit/L
ASAT ([7]; serum, 21 days (D)): 79.35±4.37 ^X1 Y3 Unit/L

Molecule: O=C1O[C@H]([C@@H](O)CO)C(O)=C1O [Ascorbic acid]
Iron chelation activity (in words) [1]: failed to show any activity
IC50 Hypochlorous acid (HOCl) scavenging [8]: 235.96 ± 5.75 µg/mL (≈ 1340 µM)
IC50 DPPH scavenging [9]: 5.29 ± 0.28 µg/mL (≈ 30 µM)

Other lines, results leading:

IC50 Hydroxyl radical (OH•) scavenging [2]: 571.45 ± 20.12 µg/mL (≈ 3140 µM)
Molecule: OC[C@@H](O)[C@@H](O)[C@H](O)[C@H](O)CO [Mannitol]

IC50 Iron chelating activity ([1]; mean ± S.D., n = 6): 1.27 ± 0.05 µg/mL (≈ 4.35 µM)
Molecule: O=C(O)CN(CCN(CC(=O)O)CC(=O)O)CC(=O)O [EDTA, Ethylenediamine tetraacetic acid]

IC50 Singlet oxygen (1O2) scavenging [4]: 46.15 ± 1.16 µg/mL (≈ 224 µM)
Molecule: O=C(O)CCCC[C@@H]1CCSS1 (racemic) [Lipoic acid]

IC50 Peroxynitrite (ONOO-) scavenging [6]: 876 ± 570 µg/mL (≈ 5150 µM)
Molecule: O=C(O)c1cc(O)c(O)c(O)c1 [Gallic acid]
